Format in all cases: biochemical
One experiment deals with Human Tyk2 kinase domain (Homo sapiens (Human), UniProt P29597). In words: Tyk2 Inhibition Assay (Example A, Omnia kinase fluorescence peptide substrate assay). As to conditions: TYK2 Enzyme IC50 1 mM ATP, averaged IC50 ranges. The essentials: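 Omnia Sox-peptide kinetic fluorescence assay (ex 360/em 485 nm, read every 50 s for 45 min) with 1 nM human Tyk2 kinase domain (aa 886–1187, His tag cleaved, baculovirus-expressed), 1 mM ATP, 8 μM Omnia Y12 peptide, in 25 mM HEPES pH 7.4, 10 mM MgCl2, 0.01% Triton X-100, 1 mM DTT, 2% DMSO. IC50 from 4-parameter logistic fit of percent of control.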

The target in the next experiment is JAK1 (Homo sapiens (Human), UniProt P23458). The experiment in a line: JAK1 Inhibition Assay (Example B, Omnia kinase fluorescence peptide substrate assay). The method in brief:
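Recombinant human JAK1 (12.5 nM) with 1 mM ATP and 8 μM Omnia Y12 Sox-peptide in 25 mM HEPES pH 7.4, 10 mM MgCl2, 0.01% Triton X-100, 1 mM DTT, 2% DMSO final. Phosphorylation read kinetically (ex 360/em 485 nm, 45 min); IC50 from 4-parameter fit of percent of control.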

The target in the next experiment is JAK2 (Homo sapiens (Human), UniProt O60674). In words: JAK2 Inhibition Assay (Example C, Omnia kinase fluorescence peptide substrate assay). As to conditions: JAK2 Enzyme IC50 1 mM ATP, averaged IC50 ranges. The essentials:
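4 nM JAK2 with 1 mM ATP and 10 μM Omnia Y7 peptide in 25 mM HEPES pH 7.4, 10 mM MgCl2, 0.01% Triton X-100, 1 mM DTT, 2% DMSO. Sox fluorescence (ex 360/em 485 nm) read every 50 s for 45 min; IC50 from 4-parameter fit of percent of control.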

The target of the next experiment is JAK3 (Homo sapiens (Human), UniProt P52333). In words: JAK3 Inhibition Assay (Example D, Omnia kinase fluorescence peptide substrate assay). The essentials:
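Mixture held 2 nM JAK3, 1 mM ATP and 10 μM Omnia Y7 peptide in 25 mM HEPES pH 7.4, 10 mM MgCl2, 0.01% Triton X-100, 1 mM DTT, 2% DMSO final. Sox fluorescence (ex 360/em 485 nm) was read every 50 s for 45 min. IC50 came from a 4-parameter logistic fit of percent of control.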

The mark [1] stands for this setting: JAK1 Enzyme IC50 1 mM ATP, 1 mM ATP, averaged IC50 ranges.

The record followed here is patent US10189845B2, “4,6-substituted-pyrazolo[1,5-a]pyrazines as janus kinase inhibitors” (ARRAY BIOPHARMA INC., priority 2014, dated 2019).

Structures are written as SMILES. Counter-ions that a name gives are not always drawn. Like-named read-outs stand apart in the source and are kept apart here.

Chain of Human Tyk2 kinase domain (P29597 886-1187): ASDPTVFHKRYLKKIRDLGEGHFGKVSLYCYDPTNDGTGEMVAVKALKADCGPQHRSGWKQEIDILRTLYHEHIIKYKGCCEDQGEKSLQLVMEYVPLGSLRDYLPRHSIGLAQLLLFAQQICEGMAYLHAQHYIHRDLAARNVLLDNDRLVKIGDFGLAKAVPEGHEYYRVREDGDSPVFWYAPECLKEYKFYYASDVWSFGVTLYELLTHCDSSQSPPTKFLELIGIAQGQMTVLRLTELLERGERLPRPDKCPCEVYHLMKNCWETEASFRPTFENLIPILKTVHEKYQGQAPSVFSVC
Chain of JAK3 (P52333 whole entry): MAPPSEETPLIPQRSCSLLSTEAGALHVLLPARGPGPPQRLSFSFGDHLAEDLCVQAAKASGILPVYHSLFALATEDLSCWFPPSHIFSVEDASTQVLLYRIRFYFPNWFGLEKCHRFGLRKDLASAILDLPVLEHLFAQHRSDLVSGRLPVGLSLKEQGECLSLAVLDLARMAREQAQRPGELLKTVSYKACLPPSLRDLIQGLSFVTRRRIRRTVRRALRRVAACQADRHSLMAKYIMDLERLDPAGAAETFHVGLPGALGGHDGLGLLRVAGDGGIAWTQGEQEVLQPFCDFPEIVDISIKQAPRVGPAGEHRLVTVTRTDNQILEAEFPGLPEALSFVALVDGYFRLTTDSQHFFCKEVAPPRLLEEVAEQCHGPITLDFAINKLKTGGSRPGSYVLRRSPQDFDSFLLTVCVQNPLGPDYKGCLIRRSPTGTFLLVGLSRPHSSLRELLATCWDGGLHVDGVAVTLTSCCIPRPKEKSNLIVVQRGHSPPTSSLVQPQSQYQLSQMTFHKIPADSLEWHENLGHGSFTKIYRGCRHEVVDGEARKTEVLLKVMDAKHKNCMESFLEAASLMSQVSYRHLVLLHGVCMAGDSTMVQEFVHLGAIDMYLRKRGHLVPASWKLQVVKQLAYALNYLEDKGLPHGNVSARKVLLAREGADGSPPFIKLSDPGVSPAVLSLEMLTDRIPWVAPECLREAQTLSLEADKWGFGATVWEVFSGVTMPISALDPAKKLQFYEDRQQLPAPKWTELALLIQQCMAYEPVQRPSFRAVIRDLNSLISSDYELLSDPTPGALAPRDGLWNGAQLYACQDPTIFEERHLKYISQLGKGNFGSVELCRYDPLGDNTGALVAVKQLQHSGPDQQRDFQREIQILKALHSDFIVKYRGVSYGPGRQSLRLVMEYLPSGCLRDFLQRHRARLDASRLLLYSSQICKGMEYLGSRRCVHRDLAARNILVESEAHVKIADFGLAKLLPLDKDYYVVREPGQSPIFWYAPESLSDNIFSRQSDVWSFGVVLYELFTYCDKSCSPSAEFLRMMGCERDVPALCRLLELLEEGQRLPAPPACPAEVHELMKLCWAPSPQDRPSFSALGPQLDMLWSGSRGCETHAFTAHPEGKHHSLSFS
Chain of JAK1 (P23458 whole entry): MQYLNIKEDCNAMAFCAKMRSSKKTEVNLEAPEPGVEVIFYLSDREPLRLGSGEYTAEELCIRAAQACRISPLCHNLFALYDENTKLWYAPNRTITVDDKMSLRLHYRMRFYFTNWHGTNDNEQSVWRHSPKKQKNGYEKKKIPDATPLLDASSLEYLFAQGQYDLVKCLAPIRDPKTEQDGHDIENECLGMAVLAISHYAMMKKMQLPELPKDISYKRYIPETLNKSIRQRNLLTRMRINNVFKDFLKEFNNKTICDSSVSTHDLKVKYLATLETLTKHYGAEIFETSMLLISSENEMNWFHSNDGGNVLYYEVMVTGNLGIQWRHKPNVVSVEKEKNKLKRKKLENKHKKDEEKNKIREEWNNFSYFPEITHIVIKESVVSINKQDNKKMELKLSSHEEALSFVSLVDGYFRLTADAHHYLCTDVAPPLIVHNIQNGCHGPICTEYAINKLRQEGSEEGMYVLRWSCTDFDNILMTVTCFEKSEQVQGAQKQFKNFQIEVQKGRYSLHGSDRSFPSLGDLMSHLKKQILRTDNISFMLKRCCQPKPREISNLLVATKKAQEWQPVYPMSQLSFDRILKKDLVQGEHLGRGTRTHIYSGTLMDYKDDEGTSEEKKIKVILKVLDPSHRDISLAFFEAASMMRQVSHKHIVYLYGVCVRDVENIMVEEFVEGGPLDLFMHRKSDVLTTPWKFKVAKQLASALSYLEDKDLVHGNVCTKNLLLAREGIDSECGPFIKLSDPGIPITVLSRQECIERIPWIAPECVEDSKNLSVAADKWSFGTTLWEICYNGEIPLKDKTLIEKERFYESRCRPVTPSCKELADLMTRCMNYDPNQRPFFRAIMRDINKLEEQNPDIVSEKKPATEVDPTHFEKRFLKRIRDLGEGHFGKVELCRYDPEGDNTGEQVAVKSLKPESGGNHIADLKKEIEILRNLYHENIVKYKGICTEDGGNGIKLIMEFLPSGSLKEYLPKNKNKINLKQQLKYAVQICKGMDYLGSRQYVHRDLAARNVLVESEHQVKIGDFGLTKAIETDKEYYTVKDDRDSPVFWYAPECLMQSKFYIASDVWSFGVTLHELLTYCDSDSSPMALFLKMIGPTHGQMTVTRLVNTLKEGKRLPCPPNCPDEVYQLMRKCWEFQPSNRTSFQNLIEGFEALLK
Chain of JAK2 (O60674 whole entry): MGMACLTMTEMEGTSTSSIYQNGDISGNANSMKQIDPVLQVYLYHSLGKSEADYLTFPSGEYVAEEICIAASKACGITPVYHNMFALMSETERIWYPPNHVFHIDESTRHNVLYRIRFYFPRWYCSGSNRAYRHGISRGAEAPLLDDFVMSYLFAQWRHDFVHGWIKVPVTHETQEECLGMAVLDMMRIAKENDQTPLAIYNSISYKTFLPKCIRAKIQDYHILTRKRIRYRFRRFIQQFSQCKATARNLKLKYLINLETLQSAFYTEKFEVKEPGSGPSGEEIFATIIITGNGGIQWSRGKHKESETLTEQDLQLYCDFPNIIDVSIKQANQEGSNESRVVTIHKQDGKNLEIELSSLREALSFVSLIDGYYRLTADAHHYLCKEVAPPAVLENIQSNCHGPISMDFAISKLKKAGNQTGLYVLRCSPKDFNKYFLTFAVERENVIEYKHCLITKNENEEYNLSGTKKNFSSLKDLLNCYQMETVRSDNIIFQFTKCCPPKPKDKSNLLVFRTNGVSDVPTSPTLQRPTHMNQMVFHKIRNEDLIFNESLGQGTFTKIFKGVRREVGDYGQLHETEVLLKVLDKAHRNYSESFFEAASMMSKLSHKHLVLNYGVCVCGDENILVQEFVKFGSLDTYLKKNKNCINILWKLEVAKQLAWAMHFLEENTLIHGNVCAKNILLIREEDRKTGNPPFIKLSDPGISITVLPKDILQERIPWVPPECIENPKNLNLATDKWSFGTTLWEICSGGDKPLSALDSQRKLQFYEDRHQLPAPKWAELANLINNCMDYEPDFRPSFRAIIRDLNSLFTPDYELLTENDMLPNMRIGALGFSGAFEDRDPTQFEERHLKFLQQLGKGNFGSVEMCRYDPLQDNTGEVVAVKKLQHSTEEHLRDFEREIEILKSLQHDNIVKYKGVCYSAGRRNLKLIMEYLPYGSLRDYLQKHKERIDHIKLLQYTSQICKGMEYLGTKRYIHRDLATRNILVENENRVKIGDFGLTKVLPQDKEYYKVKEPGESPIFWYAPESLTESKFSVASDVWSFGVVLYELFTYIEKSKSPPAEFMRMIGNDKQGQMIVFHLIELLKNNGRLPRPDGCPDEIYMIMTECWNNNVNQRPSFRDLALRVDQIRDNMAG

The term IC50 denotes the concentration at which inhibition is half-maximal. In the case of `CCC(CC)n1cc(-c2nc(-c3cnn(C[C@@H](O)CC)c3)cn3nccc23)cn1` [Example 114, (S)-1-(4-(4-(1-(pentan-3-yl)-1H-pyrazol-4-yl)pyrazolo[1,5-a]pyrazin-6-yl)-1H-pyrazol-1-yl)butan-2-ol], the concentration for half-maximal inhibition (IC50) against Human Tyk2 kinase domain lay in the range of 10 to 100 nM; on JAK1, 100 to 1000 nM; at JAK2, 10 to 100 nM; at JAK3, 1000 to 10000 nM.

In the case of `CCC(CC)n1cc(-c2nc(-c3cnn(C[C@H](O)CC)c3)cn3nccc23)cn1` [Example 115, (R)-1-(4-(4-(1-(pentan-3-yl)-1H-pyrazol-4-yl)pyrazolo[1,5-a]pyrazin-6-yl)-1H-pyrazol-1-yl)butan-2-ol], the half-maximal inhibitory concentration (IC50) against Human Tyk2 kinase domain is 10 to 100 nM; against JAK1, 100 to 1000 nM; at JAK2, 10 to 100 nM; against JAK3 it was 1000 to 10000 nM.

On to `CCC(CC)n1cc(-c2nc(-c3cnn(CC4(O)CCOCC4)c3)cn3nccc23)cn1` [Example 116, 4-((4-(4-(1-(pentan-3-yl)-1H-pyrazol-4-yl)pyrazolo[1,5-a]pyrazin-6-yl)-1H-pyrazol-1-yl)methyl)tetrahydro-2H-pyran-4-ol], for which the half-inhibitory concentration (IC50) against Human Tyk2 kinase domain lay within 10 to 100 nM; at JAK1 (setting [1]) it was 1000 to 10000 nM; against JAK2, 10 to 100 nM; at JAK3, 1000 to 10000 nM.

In the case of `CCC(CC)n1cc(-c2nc(-c3cnn(CC(C)(C)O)c3)cn3nccc23)cn1` [Example 117, 2-methyl-1-(4-(4-(1-(pentan-3-yl)-1H-pyrazol-4-yl)pyrazolo[1,5-a]pyrazin-6-yl)-1H-pyrazol-1-yl)propan-2-ol], the IC50 on Human Tyk2 kinase domain was 100 to 1000 nM; against JAK1, 100 to 1000 nM; at JAK2 it was 100 to 1000 nM; on JAK3, 1000 to 10000 nM.

As for `CCC(CC)n1cc(-c2nc(-c3cnn([C@H]4C[C@@H](O)C4)c3)cn3nccc23)cn1` [Example 119, cis-3-(4-(4-(1-(pentan-3-yl)-1H-pyrazol-4-yl)pyrazolo[1,5-a]pyrazin-6-yl)-1H-pyrazol-1-yl)cyclobutanol], the IC50 was less than 10 nM at Human Tyk2 kinase domain, 100 to 1000 nM against JAK1 (setting [1]), 10 to 100 nM against JAK2 and 1000 to 10000 nM against JAK3.

Turning to `CCC(CC)n1cc(-c2nc(-c3cnn(C[C@H]4C[C@@H](O)C4)c3)cn3nccc23)cn1` [Example 120, (1s,3s)-3-((4-(4-(1-(pentan-3-yl)-1H-pyrazol-4-yl)pyrazolo[1,5-a]pyrazin-6-yl)-1H-pyrazol-1-yl)methyl)cyclobutanol], the IC50 against Human Tyk2 kinase domain fell in the range of 10 to 100 nM; on JAK1, 100 to 1000 nM; on JAK2 it was 10 to 100 nM; against JAK3, 1000 to 10000 nM.

On to `CCC(CC)n1cc(-c2nc(-c3cnn(C(C)(C)CO)c3)cn3nccc23)cn1` [Example 124, 2-methyl-2-(4-(4-(1-(pentan-3-yl)-1H-pyrazol-4-yl)pyrazolo[1,5-a]pyrazin-6-yl)-1H-pyrazol-1-yl)propan-1-ol], for which the IC50 against Human Tyk2 kinase domain lay within 10 to 100 nM; on JAK1, 100 to 1000 nM; against JAK2, 10 to 100 nM; at JAK3, 1000 to 10000 nM.

Take `CCC(CC)n1cc(-c2nc(-c3cnn([C@@H](C)CO)c3)cn3nccc23)cn1` [Example 125, (S)-2-(4-(4-(1-(pentan-3-yl)-1H-pyrazol-4-yl)pyrazolo[1,5-a]pyrazin-6-yl)-1H-pyrazol-1-yl)propan-1-ol]: the half-maximal inhibitory concentration (IC50) against Human Tyk2 kinase domain was 10 to 100 nM; against JAK1 (setting [1]) it was 1000 to 10000 nM; at JAK2, 100 to 1000 nM; against JAK3 it was 1000 to 10000 nM.

With `CCC(CC)n1cc(-c2nc(-c3cnn(C[C@@H]4CNCCO4)c3)cn3nccc23)cn1` [Example 127, (S)-2-((4-(4-(1-(pentan-3-yl)-1H-pyrazol-4-yl)pyrazolo[1,5-a]pyrazin-6-yl)-1H-pyrazol-1-yl)methyl)morpholine trifluoroacetic acid], the half-maximal inhibitory concentration (IC50) is 100 to 1000 nM at Human Tyk2 kinase domain, 1000 to 10000 nM on JAK1, 100 to 1000 nM against JAK2 and 1000 to 10000 nM against JAK3.

Take `CCC(CC)n1cc(-c2nc(-c3cnn(C[C@@H](CO)N(C)C)c3)cn3nccc23)cn1` [Example 129, (S)-2-(dimethylamino)-3-(4-(4-(1-(pentan-3-yl)-1H-pyrazol-4-yl)pyrazolo[1,5-a]pyrazin-6-yl)-1H-pyrazol-1-yl)propan-1-ol]: the half-inhibitory concentration (IC50) at Human Tyk2 kinase domain fell in the range of 10 to 100 nM; at JAK1 (setting [1]), 100 to 1000 nM; on JAK2, 10 to 100 nM; at JAK3, 1000 to 10000 nM.

As for `CCC(CC)n1cc(-c2nc(-c3cnn(C[C@@H](N)CO)c3)cn3nccc23)cn1` [Example 130, (R)-2-amino-3-(4-(4-(1-(pentan-3-yl)-1H-pyrazol-4-yl)pyrazolo[1,5-a]pyrazin-6-yl)-1H-pyrazol-1-yl)propan-1-ol], the 50% inhibitory concentration (IC50) against Human Tyk2 kinase domain was 10 to 100 nM; against JAK1, 1000 to 10000 nM; against JAK2, 10 to 100 nM; on JAK3, 1000 to 10000 nM.

Regarding `CCC(CC)n1cc(-c2nc(-c3cnn(C[C@H](CO)N(C)C)c3)cn3nccc23)cn1` [Example 131, (R)-2-(dimethylamino)-3-(4-(4-(1-(pentan-3-yl)-1H-pyrazol-4-yl)pyrazolo[1,5-a]pyrazin-6-yl)-1H-pyrazol-1-yl)propan-1-ol], the IC50 on Human Tyk2 kinase domain was in the range of 10 to 100 nM; against JAK1 (setting [1]), 100 to 1000 nM; at JAK2, 10 to 100 nM; at JAK3 it was 1000 to 10000 nM.

Turning to `CCC(CC)n1cc(-c2nc(-c3cnn(CCNC4CC4)c3)cn3nccc23)cn1` [Example 134, N-(2-(4-(4-(1-(pentan-3-yl)-1H-pyrazol-4-yl)pyrazolo[1,5-a]pyrazin-6-yl)-1H-pyrazol-1-yl)ethyl)cyclopropanamine trifluoroacetate], the IC50 against Human Tyk2 kinase domain was 10 to 100 nM; at JAK1, 10 to 100 nM; at JAK2, 10 to 100 nM; against JAK3 it was 1000 to 10000 nM.

As for `CCC(CC)n1cc(-c2nc(-c3cnn(CCN4CCCC4)c3)cn3nccc23)cn1` [Example 135, 4-(1-(pentan-3-yl)-1H-pyrazol-4-yl)-6-(1-(2-(pyrrolidin-1-yl)ethyl)-1H-pyrazol-4-yl)pyrazolo[1,5-a]pyrazine], the half-maximal inhibitory concentration (IC50) against Human Tyk2 kinase domain lay in the range of 10 to 100 nM; against JAK1, 1000 to 10000 nM; against JAK2, 10 to 100 nM; against JAK3 it was 1000 to 10000 nM.

As to `CCC(CC)n1cc(-c2nc(-c3cnn(CCN4CC[C@@H](OC)C4)c3)cn3nccc23)cn1` [Example 136, (R)-6-(1-(2-(3-methoxypyrrolidin-1-yl)ethyl)-1H-pyrazol-4-yl)-4-(1-(pentan-3-yl)-1H-pyrazol-4-yl)pyrazolo[1,5-a]pyrazine], the IC50 at Human Tyk2 kinase domain was in the range of 10 to 100 nM; on JAK1, 100 to 1000 nM; against JAK2, 10 to 100 nM; on JAK3 it was 1000 to 10000 nM.

With `CCC(CC)n1cc(-c2nc(-c3cnn(CCN4CC[C@H](OC)C4)c3)cn3nccc23)cn1` [Example 137, (S)-6-(1-(2-(3-methoxypyrrolidin-1-yl)ethyl)-1H-pyrazol-4-yl)-4-(1-(pentan-3-yl)-1H-pyrazol-4-yl)pyrazolo[1,5-a]pyrazine], the half-inhibitory concentration (IC50) against Human Tyk2 kinase domain was 10 to 100 nM; against JAK1, 100 to 1000 nM; against JAK2, 10 to 100 nM; against JAK3, 1000 to 10000 nM.

On to `CCC(CC)n1cc(-c2nc(-c3cnn(CCN4CC(F)C4)c3)cn3nccc23)cn1` [Example 138, 6-(1-(2-(3-fluoroazetidin-1-yl)ethyl)-1H-pyrazol-4-yl)-4-(1-(pentan-3-yl)-1H-pyrazol-4-yl)pyrazolo[1,5-a]pyrazine], for which the IC50 was in the range of 10 to 100 nM on Human Tyk2 kinase domain, 1000 to 10000 nM on JAK1, 10 to 100 nM on JAK2 and 1000 to 10000 nM at JAK3.

`CCC(CC)n1cc(-c2nc(-c3cnn(CCN4CCC(O)CC4)c3)cn3nccc23)cn1` [Example 139, 1-(2-(4-(4-(1-(pentan-3-yl)-1H-pyrazol-4-yl)pyrazolo[1,5-a]pyrazin-6-yl)-1H-pyrazol-1-yl)ethyl)piperidin-4-ol]: the half-inhibitory concentration (IC50) against Human Tyk2 kinase domain was 10 to 100 nM; against JAK1, 100 to 1000 nM; against JAK2 it was 100 to 1000 nM; on JAK3 it was 1000 to 10000 nM.

As for `CCC(CC)n1cc(-c2nc(-c3cnn(CCN4CC[C@@H](O)C4)c3)cn3nccc23)cn1` [Example 140, (R)-1-(2-(4-(4-(1-(pentan-3-yl)-1H-pyrazol-4-yl)pyrazolo[1,5-a]pyrazin-6-yl)-1H-pyrazol-1-yl)ethyl)pyrrolidin-3-ol], the 50% inhibitory concentration (IC50) on Human Tyk2 kinase domain was 10 to 100 nM; against JAK1 it was 1000 to 10000 nM; against JAK2, 10 to 100 nM; against JAK3, 1000 to 10000 nM.

As for `CCC(CC)n1cc(-c2nc(-c3cnn(CCN4CC[C@H](O)C4)c3)cn3nccc23)cn1` [Example 141, (S)-1-(2-(4-(4-(1-(pentan-3-yl)-1H-pyrazol-4-yl)pyrazolo[1,5-a]pyrazin-6-yl)-1H-pyrazol-1-yl)ethyl)pyrrolidin-3-ol], the IC50 on Human Tyk2 kinase domain is 10 to 100 nM; against JAK1, 1000 to 10000 nM; against JAK2 it was 10 to 100 nM; on JAK3 it was 1000 to 10000 nM.
